# Source: patent US10240133B2, “ERK-derived peptides and uses thereof” (Yeda Research and Development Co. Ltd., priority 2013, dated 2019)
# Test system: A2352 xenografts
# Test: Tumor disappearance and recurrence in A2352 xenografts, EPE peptide compared with PLX4032
# Format: in vivo, SCID mice
# Method: FIGS. 6A-6B illustrate that the EPE peptide prevents the growth of human tumor xenografts. CD-1 nude mice were inoculated with MDA-MB-231, LOXIMVI and HCT-116 cells, and SKID mice were inoculated with A2352 cells. Upon tumors establishment, the mice were treated intravenously with the DMSO as well as EPE or Scr peptides in the indicated doses, 3 times a week. The results are averages of 5 mice in each experimental group. The X, Y, Z dimensions of the tumors were measured with a caliper, and the volume was calculated accordingly. The significance of all experiments was at least P<0.001. (B) The EPE peptide prevents tumor recurrence on melanoma xenograft. SCID mice were inoculated with A2352 cells. Upon establishment of tumors mice were treated intravenously with 15 mg/kg EPE peptide (n=7) or intraperitonealy with 15 mg/kg PLX4032 (n=5), at the indicated dose 3 times a week. Tumor size was recorded at the same time using a caliper. Following 3 weeks of treatment, mice were kept for further evaluation monitoring for any tumor recurrence of the effective treated melanoma xenografts. Experiment was concluded 110 days post inoculation (11 weeks after the last treatment) and the overall state of the animals was evaluated. sac=sacrificed, recur=recurrence, met=metastasis.
# Tumor dimensions were measured with a digital sliding caliper.
sequence,measurement,setting,value
"GQLNHILGILGEPEQED (Synthetic peptide (EPE)) [EPE peptide, NTS-derived peptide with phosphomimetic EPE motif]",time to complete disappearance of tumors,"15 mg/kg, 3 times a week",10 to 23 days
same,tumor disappearance,"15 mg/kg, 3 times a week, 3 weeks, EPE i.v. (n=7), PLX4032 i.p. (n=5), initial ~80 mm3 tumors",complete disappearance of the tumors of all mice
same,overall state of animals after treatment,"follow up after last treatment, incl. 5 other animals in a repeating experiment",remained healthy up to 11 weeks after treatment
same,mice with tumor recurrence,follow up for up to 11 weeks after last treatment,None
